{"source": "paper PMC4669708", "about": "(Cell Death & Disease, 2015)", "key": {"HT-29 MLKL S358D cells": {"tested_on": "HT-29 MLKL S358D cells", "experiment": "Cell death driven by doxycycline-induced MLKL S358D expression", "type": "cell-based, human", "conditions": "2 μg/ml doxycycline overnight; 10 μM NSA, 0.5 μM ponatinib", "experimental": "(§1) Cells were seeded in 12-, 24- or 96-well plates at proper cell density. For necroptosis or apoptosis assays, cells were incubated with the indicated compound combinations at concentrations stated for 14–24 h. Smac mimetic and z-VAD-FMK were added 30–60 min before treatment with TNF-α, FasL or TRAIL. Cell viability was determined using CellTiter Glo Luminescent Cell Viability Assay (Promega, Fitchburg, WI, USA) according to the manufacturer's instructions. Luminescence was recorded with a SpectraMax M5Multimode plate reader (Molecular Devices, Sunnyvale, CA, USA). For flow cytometry-based determination of viability, cells were harvested, collected by centrifugation, washed once and resuspended in staining buffer (1 × PBS, 10% FBS). Cells were incubated with 0.5 μg/ml PI for 10 min at room temperature (RT) in the dark. Flow cytometric analyses were performed on an LSR Fortessa (BD Biosciences) and analyzed with FlowJo software version 7.6.3 (Tree Star Inc, Ashland, OR, USA). Cell size was evaluated by forward scatter. PI-negative normal-sized cells were considered living and data were normalized to values of untreated controls. For detection of apoptosis, cells were resuspended in Annexin V Binding Buffer (BioLegend, San Diego, CA, USA) and stained with 0.5 μg/ml PI and Alexa Fluor 647 Annexin V (BioLegend) according to manufacturer's instructions."}, "[1]": {"tested_on": "FADD-deficient Jurkat cells", "experiment": "TNF-α-induced necroptosis, cell viability (CellTiter Glo)", "type": "cell-based, human", "conditions": "for EC50: CellTiter Glo, read-out: EC50 for inhibiting necroptosis; for prevention of necroptotic cell death: dose range, Figure 2a, b", "experimental": "as §1, with “controls.” for “controls. For detection of apoptosis, cells were resuspended in Annexin V Binding Buffer (BioLegend, San Diego, CA, USA) and stained with 0.5 μg/ml PI and Alexa Fluor 647 Annexin V (BioLegend) according to manufacturer's instructions.”\nThe compounds were transferred into drug plates by acoustic droplet ejection using an Echo 520 liquid handler (LABCYTE, Sunnyvale, CA, USA). Necroptosis was induced in FADD-deficient Jurkat cells by addition of 10 ng/ml TNF-α immediately before seeding onto drug plates at a density of 1x10^4 cells/well. After 16 h incubation, cell viability was determined using CellTiter Glo Luminescent Cell Viability Assay according to manufacturer's instructions. Data analysis was performed by calculating a percentage of control to normalize for variability across different plates. The signal for the negative control DMSO wells was set to 0%, whereas the wells containing the positive control Nec-1 were put to 100% for each plate individually."}, "RIPK3": {"target": "RIPK3 (Homo sapiens, UniProt Q9Y572)", "sequence (Q9Y572 whole entry)": "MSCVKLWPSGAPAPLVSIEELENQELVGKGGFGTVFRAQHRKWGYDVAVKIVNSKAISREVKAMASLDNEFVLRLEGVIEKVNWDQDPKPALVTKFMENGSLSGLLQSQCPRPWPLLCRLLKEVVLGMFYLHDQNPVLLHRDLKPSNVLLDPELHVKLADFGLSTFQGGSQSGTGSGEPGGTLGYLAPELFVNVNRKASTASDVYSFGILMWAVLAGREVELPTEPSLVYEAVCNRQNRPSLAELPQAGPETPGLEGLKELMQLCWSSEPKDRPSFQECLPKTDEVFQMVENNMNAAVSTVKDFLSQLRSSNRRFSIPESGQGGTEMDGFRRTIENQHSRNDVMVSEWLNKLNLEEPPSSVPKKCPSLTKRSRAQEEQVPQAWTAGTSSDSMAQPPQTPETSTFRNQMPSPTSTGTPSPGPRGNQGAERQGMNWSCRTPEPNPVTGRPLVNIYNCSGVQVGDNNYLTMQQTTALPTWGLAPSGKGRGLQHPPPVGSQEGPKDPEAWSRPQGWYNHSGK", "experiment": "Recombinant kinase assay", "type": "biochemical", "parameters": "purchased Signalchem R09-10G", "experimental": "(§2) Recombinant RIPK1 or RIPK3 protein was incubated with the substrate MBP in kinase assay buffer (40 mM Tris-HCl pH 7.5, 10 mM MgCl2 and 1 mM DTT) in presence of 50 μM ATP, 5 μCi [γ-32 P]ATP and the indicated inhibitors in a total volume of 20 μl. […] The terminated reactions were spotted onto a SAM2 Biotin Capture membrane (Promega) and further processed according to the manufacturer's instructions. […] Data were normalized to a DMSO-treated control sample. For autoradiography, the reactions were stopped by addition of 5 μl 4x Laemmli buffer and incubated for 5 min at 95 °C."}, "HT-29 cells [2]": {"tested_on": "HT-29 cells", "experiment": "TNF-α/Smac mimetic/z-VAD-FMK (TSZ)-induced necroptosis, cell viability", "type": "cell-based, human", "conditions": "for rescue of TSZ-induced necroptotic cell death: compounds 1 μM, 20 ng/ml TNF-α, 500 nM Smac mimetic, 20 μM z-VAD overnight", "experimental": "as §1, with “controls.” for “controls. For detection of apoptosis, cells were resuspended in Annexin V Binding Buffer (BioLegend, San Diego, CA, USA) and stained with 0.5 μg/ml PI and Alexa Fluor 647 Annexin V (BioLegend) according to manufacturer's instructions.”"}, "HT-29 cells [3]": {"tested_on": "HT-29 cells", "experiment": "TRAIL- or FasL-induced necroptosis with Smac mimetic and z-VAD", "type": "cell-based, human", "conditions": "0.5 μM ponatinib, 5 μM pazopanib", "experimental": "as §1"}, "Jurkat E6.1 cells": {"tested_on": "Jurkat E6.1 cells", "experiment": "FasL-induced apoptosis, cell viability", "type": "cell-based", "conditions": "100 ng/ml human FasL, 24 h; 0.5 μM ponatinib, 5 μM pazopanib", "experimental": "as §1"}, "3T3-SA cells": {"tested_on": "3T3-SA cells", "experiment": "TNF-α/z-VAD (TZ)-induced necroptosis", "type": "cell-based, murine", "conditions": "Supplementary Figures 3a, b", "experimental": "as §1"}, "recombinant RIPK1": {"target": "T1, recombinant RIPK1 (Homo sapiens, UniProt Q13546)", "T1 construct": "purchased Signalchem R07-10G", "T1 sequence (Q13546 1-327 limits assumed)": "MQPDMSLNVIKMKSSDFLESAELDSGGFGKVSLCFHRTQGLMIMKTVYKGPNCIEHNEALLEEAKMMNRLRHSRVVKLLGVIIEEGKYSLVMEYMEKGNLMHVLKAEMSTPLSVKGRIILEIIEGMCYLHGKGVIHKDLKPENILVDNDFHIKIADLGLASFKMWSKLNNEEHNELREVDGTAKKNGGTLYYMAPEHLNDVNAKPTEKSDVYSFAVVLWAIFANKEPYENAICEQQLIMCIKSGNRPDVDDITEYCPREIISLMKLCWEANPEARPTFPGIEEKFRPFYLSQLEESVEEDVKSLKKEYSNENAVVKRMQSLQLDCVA", "experiment": "Recombinant kinase assay", "type": "biochemical", "conditions": "50 μM ATP; Supplementary Figure 4b", "experimental": "as §2"}}}
{"compound": "COc1nccnc1NS(=O)(=O)c1ccc(NC(=O)/C=C/c2ccc([N+](=O)[O-])s2)cc1", "note": "[NSA, necrosulfonamide]", "values": [{"measurement": "block of cell death driven by MLKL S358D expression", "setting": "HT-29 MLKL S358D cells", "value": "could be blocked"}]}
{"compound": "CN1C(=O)NC(Cc2c[nH]c3c(Cl)cccc23)C1=O", "note": "(stereo not shown) [Nec-1s, 7-Cl-O-Nec-1]", "values": [{"measurement": "EC50", "setting": "[1]; 10 ng/ml TNF-α overnight", "value": 238, "unit": "nM"}, {"measurement": "RIPK3 autophosphorylation", "setting": "RIPK3; autoradiography, Supplementary Figure 4c", "value": "showed no effect"}]}
{"compound": "5-[[4-[(2,3-dimethyl-2H-indazol-6-yl)methylamino]-2-pyrimidinyl]amino]-2-methyl-b enzenesulfonamide [pazopanib]", "values": [{"measurement": "EC50", "setting": "[1]; 10 ng/ml TNF-α overnight", "value": 254, "unit": "nM"}, {"measurement": "rescue of cell viability in drug screen", "setting": "[1]; 0.5 and 1.5 μM, 10 ng/ml TNF-α overnight", "value": "robustly rescued cell viability at both concentrations"}, {"measurement": "EC50", "setting": "HT-29 cells [2]; TSZ treatment, read-out: EC50 (necroptosis block)", "value": 873, "unit": "nM"}, {"measurement": "rescue of TSZ-induced necroptotic cell death", "setting": "HT-29 cells [2]", "value": "rescued"}, {"measurement": "block of TRAIL-induced cell death", "setting": "HT-29 cells [3]; 200 ng/ml TRAIL + 500 nM Smac mimetic + 20 μM z-VAD", "value": "similarly blocked"}, {"measurement": "block of FasL-induced necroptotic cell death", "setting": "HT-29 cells [3]; 200 ng/ml human FasL + 500 nM Smac mimetic + 20 μM z-VAD", "value": "similarly blocked"}, {"measurement": "inhibition of apoptotic cell death triggered by FasL", "setting": "Jurkat E6.1 cells", "value": "none of the drugs inhibited apoptotic cell death"}, {"measurement": "block of necroptotic cell death", "setting": "3T3-SA cells", "value": "capable of blocking necroptotic cell death with comparable potency"}, {"measurement": "block of cell death driven by MLKL S358D expression", "setting": "HT-29 MLKL S358D cells", "value": "did not block MLKL S358D-driven necroptosis"}, {"measurement": "RIPK1 kinase activity (MBP phosphorylation)", "setting": "recombinant RIPK1", "value": "inhibiting RIPK1 kinase activity"}]}
{"compound": "COc1cc(O)c2c(c1)/C=C/C[C@H](O)[C@H](O)C(=O)/C=C\\C[C@H](C)OC2=O", "note": "[TAK1 inhibitor]", "values": [{"measurement": "protection to necroptosis", "setting": "[1]; Supplementary Figures 6b, c", "value": "not able to confer protection to necroptosis"}]}
{"compound": "COc1cc2c(Nc3ccc(Br)cc3F)ncnc2cc1OCC1CCN(C)CC1", "note": "[vandetanib]", "values": [{"measurement": "prevention of necroptotic cell death", "setting": "[1]; 10 ng/ml TNF-α overnight", "value": "did not confer protection"}, {"measurement": "rescue of TSZ-induced necroptotic cell death", "setting": "HT-29 cells [2]", "value": "neither of the other four BCR-ABL inhibitors nor vandetanib did"}]}
{"compound": "Cc1nc(Nc2ncc(C(=O)Nc3c(C)cccc3Cl)s2)cc(N2CCN(CCO)CC2)n1", "note": "[dasatinib]", "values": [{"measurement": "prevention of necroptotic cell death", "setting": "[1]; 10 ng/ml TNF-α overnight", "value": "showed a modest effect but only at drug concentrations high enough to induce toxicity"}, {"measurement": "rescue of TSZ-induced necroptotic cell death", "setting": "HT-29 cells [2]", "value": "neither of the other four BCR-ABL inhibitors nor vandetanib did"}, {"measurement": "RIPK3 kinase activity (MBP phosphorylation)", "setting": "RIPK3; 50 μM ATP, Figure 4e inhibitors at 10 μM", "value": "interfered with RIPK3 activity"}]}
{"compound": "Cc1cn(-c2cc(NC(=O)c3ccc(C)c(Nc4nccc(-c5cccnc5)n4)c3)cc(C(F)(F)F)c2)cn1", "note": "[nilotinib]", "values": [{"measurement": "prevention of necroptotic cell death", "setting": "[1]; 10 ng/ml TNF-α overnight", "value": "none of the other drugs prevented necroptotic cell death"}, {"measurement": "rescue of TSZ-induced necroptotic cell death", "setting": "HT-29 cells [2]", "value": "neither of the other four BCR-ABL inhibitors nor vandetanib did"}]}
{"compound": "Cc1ccc(NC(=O)c2ccc(CN3CCN(C)CC3)cc2)cc1Nc1nccc(-c2cccnc2)n1", "note": "[imatinib]", "values": [{"measurement": "prevention of necroptotic cell death", "setting": "[1]; 10 ng/ml TNF-α overnight", "value": "none of the other drugs prevented necroptotic cell death"}, {"measurement": "rescue of TSZ-induced necroptotic cell death", "setting": "HT-29 cells [2]", "value": "neither of the other four BCR-ABL inhibitors nor vandetanib did"}]}
{"compound": "COc1cc(Nc2c(C#N)cnc3cc(OCCCN4CCN(C)CC4)c(OC)cc23)c(Cl)cc1Cl", "note": "[bosutinib]", "values": [{"measurement": "prevention of necroptotic cell death", "setting": "[1]; 10 ng/ml TNF-α overnight", "value": "none of the other drugs prevented necroptotic cell death"}, {"measurement": "rescue of TSZ-induced necroptotic cell death", "setting": "HT-29 cells [2]", "value": "neither of the other four BCR-ABL inhibitors nor vandetanib did"}]}
